pIC50: −log10 of the molar value. Read-outs that look alike come from different tables or passages of the source.
Key:
cyclin E/CDK2 enzyme = biological target: T1, cyclin E/CDK2 enzyme (Homo sapiens, UniProt P24941); assay: CDK2 ELISA kinase assay (phospho-Rb ser 795 detection); format: biochemical
T1 construct: made in house; host or cells: Sf9 insect cells, recombinant baculovirus
How it was run: (§1)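 GST-Rb C-terminal fragment coated on plates; partially purified Sf9-expressed cyclin D1/CDK4, cyclin E/CDK2 or cyclin B/CDK1 with 200 μM ATP, pH 7.5 HEPES/MgCl2 buffer, 1 h at 30 °C; screen compound final 10 μg/ml. Phospho-Rb Ser795 detected by antibody ELISA (TMB, A450); % of control, IC50 from background-subtracted inhibition curves.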

cyclin B/CDK1 enzyme = biological target: T2, cyclin B/CDK1 enzyme (Homo sapiens, UniProt P06493); assay: CDK1 ELISA kinase assay (phospho-Rb ser 795 detection); format: biochemical
T2 construct: purchased New England BioLabs; host or cells: Sf9 insect cells, recombinant baculovirus
T2 sequence (P06493 whole entry): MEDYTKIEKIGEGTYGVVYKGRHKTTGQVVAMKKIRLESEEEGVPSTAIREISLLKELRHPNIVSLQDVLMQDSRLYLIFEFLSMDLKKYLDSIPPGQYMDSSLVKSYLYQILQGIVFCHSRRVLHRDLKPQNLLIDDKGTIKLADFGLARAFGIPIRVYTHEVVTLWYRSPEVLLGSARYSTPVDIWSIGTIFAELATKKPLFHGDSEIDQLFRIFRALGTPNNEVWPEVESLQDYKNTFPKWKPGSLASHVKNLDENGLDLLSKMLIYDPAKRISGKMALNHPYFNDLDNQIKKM
T2 sequence (P14635 whole entry partner): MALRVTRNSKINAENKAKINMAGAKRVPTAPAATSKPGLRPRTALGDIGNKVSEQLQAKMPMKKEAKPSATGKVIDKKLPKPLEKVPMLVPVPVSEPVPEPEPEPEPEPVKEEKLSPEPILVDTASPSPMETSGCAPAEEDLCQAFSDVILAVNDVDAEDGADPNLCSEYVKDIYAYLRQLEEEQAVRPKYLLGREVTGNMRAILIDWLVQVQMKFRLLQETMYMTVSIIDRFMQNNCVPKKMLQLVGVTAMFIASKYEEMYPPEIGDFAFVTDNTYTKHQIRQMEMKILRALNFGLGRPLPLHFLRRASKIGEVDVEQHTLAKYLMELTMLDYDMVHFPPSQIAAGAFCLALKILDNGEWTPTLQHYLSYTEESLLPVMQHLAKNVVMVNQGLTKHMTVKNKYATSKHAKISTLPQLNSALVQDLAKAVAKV
How it was run: as §1

cyclin D1/cdk 4 enzyme = biological target: T3, cyclin D1/cdk 4 enzyme (Homo sapiens, UniProt P11802); assay: CDK4 ELISA kinase assay (phospho-Rb ser 795 detection); format: biochemical
T3 construct: made in house; host or cells: Sf9 insect cells, recombinant baculovirus
T3 sequence (P11802 whole entry, species assumed): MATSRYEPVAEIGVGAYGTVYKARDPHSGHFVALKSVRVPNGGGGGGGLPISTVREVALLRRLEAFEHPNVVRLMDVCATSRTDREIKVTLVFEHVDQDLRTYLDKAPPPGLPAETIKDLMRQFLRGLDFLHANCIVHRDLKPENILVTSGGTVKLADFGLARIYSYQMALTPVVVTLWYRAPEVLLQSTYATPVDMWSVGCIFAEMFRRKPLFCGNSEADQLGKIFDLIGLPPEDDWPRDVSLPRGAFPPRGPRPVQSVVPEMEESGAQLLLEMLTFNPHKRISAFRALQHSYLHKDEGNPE
T3 sequence (P24385 whole entry partner, species assumed): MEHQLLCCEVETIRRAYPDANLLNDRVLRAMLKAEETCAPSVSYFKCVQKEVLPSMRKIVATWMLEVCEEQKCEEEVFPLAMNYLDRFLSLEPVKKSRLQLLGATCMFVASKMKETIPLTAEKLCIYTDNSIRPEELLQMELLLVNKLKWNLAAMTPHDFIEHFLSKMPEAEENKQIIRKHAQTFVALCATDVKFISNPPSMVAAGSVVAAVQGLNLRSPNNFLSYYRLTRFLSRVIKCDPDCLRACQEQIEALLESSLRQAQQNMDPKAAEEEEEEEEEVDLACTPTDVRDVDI
How it was run: as §1

BT474 = assay: Cytotoxicity assay (SRB), BT474; format: cell-based
How it was run: (§2)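 Protein staining with sulforhodamine B after cold TCA fixation served as the survival endpoint (A540, relative to untreated cells). Before staining, cells were incubated with compound at 37 °C, 7% CO2 for 3 days, or 6 days for BT474.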

MCF-7 = assay: Cytotoxicity assay (SRB), MCF-7; format: cell-based; details: Homo sapiens, MCF7, 72 h, MCF-7 cells, SRB, read-out: In Vitro Cellular Activity IC50 MCF-7
How it was run: as §2

HCT-116 = assay: Cytotoxicity assay (SRB), HCT-116; format: cell-based; details: Homo sapiens, HCT-116, 72 h, HCT116 cells, SRB, read-out: In Vitro Cellular Activity IC50 HCT116
How it was run: as §2

LoVo = assay: Cytotoxicity assay (SRB), LoVo; format: cell-based; details: Homo sapiens, LoVo, 72 h, LoVo cells, SRB, read-out: In Vitro Cellular Activity IC50 LOVO
How it was run: as §2

[1] = In Vitro Enzyme Assay, cyclin E/CDK2, read-out: CDK2 IC50
[2] = In Vitro Enzyme Assay, cyclin B/CDK1, read-out: CDK1 IC50
[3] = In Vitro Enzyme Assay, cyclin D1/cdk 4, read-out: CDK4 IC50
[4] = Homo sapiens, BT-474, 144 h, BT474 cells, 6 days, SRB; read-out: In Vitro Cellular Activity IC50 BT474
[5] = In Vitro Enzyme Assays, read-out: CDK2 IC50
[6] = In Vitro Enzyme Assays, read-out: CDK1 IC50
[7] = In Vitro Enzyme Assays, 200 μM ATP, read-out: CDK4 IC50
[8] = Homo sapiens, BT-474, 144 h, BT474 cells, SRB, 6 days; read-out: In Vitro Cellular Activity IC50 BT474

| Compound | pIC50 (cyclin E/CDK2 enzyme; [1]) | melting point | pIC50 (cyclin B/CDK1 enzyme; [2]) | pIC50 (cyclin D1/cdk 4 enzyme; [3]) | pIC50 (BT474; [4]) | pIC50 (MCF-7; 3 days) | pIC50 (HCT-116; 3 days) | pIC50 (LoVo; 3 days) | pIC50 (cyclin E/CDK2 enzyme; [5]) | pIC50 (cyclin B/CDK1 enzyme; [6]) | pIC50 (cyclin D1/cdk 4 enzyme; [7]) | pIC50 (BT474; [8]) | pIC50 (MCF-7; three days) | pIC50 (HCT-116; three days) | pIC50 (LoVo; three days) |
| --- | --- | --- | --- | --- | --- | --- | --- | --- | --- | --- | --- | --- | --- | --- | --- |
| CCC(=O)Nc1cnc(CN/C=C2\C(=O)NC(=O)c3ccc(I)cc32)cc1O [Example 470, N-(4-Hydroxy-6-{[(6-iodo-1,3-dioxo-2,3-dihydro-1H-isoquinolin-4-ylidenemethyl)-amino]-methyl}-pyridin-3-yl)-propionamide] | 6.72 | 210 to 218 °C (dec.) | 5.60 | 7.30 | 5.70 | 4.42 | 4.68 | 4.72 |  |  |  |  |  |  |  |
| CN1CCN(c2ccc(N/C=C3\C(=O)NC(=O)c4ccc(-c5cccn5C)cc43)cn2)CC1 [Example 474, (4Z)-4-({[6-(4-Methylpiperazin-1-yl)pyridin-3-yl]amino}methylene)-6-(1-methyl-1H-pyrrol-2-yl)isoquinoline-1,3(2H,4H)-dione] | < 4.30 | 216 to 217 °C | < 4.30 | 5.38 | 5.13 | 5.40 | 5.46 | 5.42 |  |  |  |  |  |  |  |
| CN1CCN(c2ccc(N/C=C3\C(=O)NC(=O)c4ccc(C#Cc5ccsc5)cc43)cc2)CC1 [Example 187, (4Z)-4-({[4-(4-Methylpiperazin-1-yl)phenyl]amino}methylene)-6-(thien-3-ylethynyl)-isoquinoline-1,3(2H,4H)-dione] |  | 193 to 194 °C |  |  |  |  |  |  | 5.48 | 5.77 | 5.64 | 5.54 | 5.52 | 5.96 | 5.07 |
| CN1CCN(c2ccc(N/C=C3\C(=O)NC(=O)c4ccc(Br)cc43)nc2)CC1 [Example 442, (4Z)-6-Bromo-4-({[5-(4-methylpiperazin-1-yl)pyridin-2-yl]amino}methylene)isoquinoline-1,3(2H,4H)-dione] |  | 191 to 192 °C |  |  | 5.43 | 5.62 | 5.96 | 5.39 | 4.60 | 4.80 | 5.48 |  |  |  |  |
| COc1ccc(CN/C=C2\C(=O)NC(=O)c3ccc(-c4cn[nH]c4)cc32)cc1O [Example 136, (4Z)-4-{[(3-Hydroxy-4-methoxybenzyl)amino]methylene}-6-(1H-pyrazol-4-yl)isoquinoline-1,3(2H,4H)-dione] |  | 252 to 253 °C |  |  |  |  |  |  | 6.37 | 5.40 | 8.30 | 4.80 | 4.32 | 4.60 | 4.44 |
| COc1cc(CN/C=C2\C(=O)NC(=O)c3ccc(I)cc32)cc(O)c1OC [Example 89, (4Z)-6-Iodo-4-{[(3-hydroxy-4,5-dimethoxybenzyl)amino)methylene}isoquinoline-1,3(2H,4H)-dione] |  | 265 to 266 °C |  |  |  |  |  |  | 5.48 | < 4.30 | 8.70 | 5.23 | 4.70 | 5.43 | 5.11 |
| CN1CCN(c2cnc(N/C=C3\C(=O)NC(=O)c4ccc(I)cc43)cn2)CC1 [Example 507, (4Z)-6-Iodo-4-({[5-(4-methylpiperazin-1-yl)pyrazin-2-yl]amino}methylene)isoquinoline-1,3(2H,4H)-dione] | 4.80 | 238 to 239 °C | 5.52 | 4.86 | 5.02 | 4.96 | 5.51 | 4.74 |  |  |  |  |  |  |  |
| COc1ccc(C#Cc2ccc3c(c2)/C(=C/Nc2ccc(N4CCN(C)CC4)cc2)C(=O)NC3=O)cc1 [Example 172, (4Z)-6-[(4-Methoxyphenyl)ethynyl]-4-({[4-(4-methylpiperazin-1-yl)phenyl]amino}-methylene)isoquinoline-1,3(2H,4H)-dione] |  | 155 to 156 °C |  |  |  |  |  |  | < 4.30 | 4.63 | 4.63 | 4.77 | < 4.30 | 5.06 | < 4.30 |
| CC1CCCN1Cc1ccc(N/C=C2\C(=O)NC(=O)c3ccc(-c4ccc(F)cc4)cc32)cc1 (centres unmarked) [Example 289, (4Z)-6-(4-Fluorophenyl)-4-[({4-[(2-methylpyrrolidin-1-yl)methyl]phenyl}amino)-methylene]isoquinoline-1,3(2H,4H)-dione] |  | 165 to 166 °C |  |  |  |  |  |  | < 4.30 | < 4.30 | 6.51 | 5.89 | 6.05 | 5.66 | 5.13 |
| COC[C@@H]1CCCN1Cc1ccc(N/C=C2\C(=O)NC(=O)c3ccc(-c4ccc(F)cc4)cc32)cc1 [Example 299, (4Z)-6-(4-Fluorophenyl)-4-{[(4-{[(2S)-2-(methoxymethyl)pyrrolidin-1-yl]methyl}phenyl)amino]methylene}isoquinoline-1,3(2H,4H)-dione] |  | 162 to 163 °C |  |  |  |  |  |  | < 4.30 | < 4.30 | 6.72 | 5.70 | 6.10 | 5.52 | 5.11 |
| C[C@@H]1CN(c2ccc(N/C=C3\C(=O)NC(=O)c4ccc(-c5ccoc5)cc43)cc2)C[C@H](C)N1C [Example 241, (4Z)-6-(3-Furyl)-4-[({4-[(3R,5S)-3,4,5-trimethylpiperazin-1-yl]phenyl}amino)-methylene]isoquinoline-1,3(2H,4H)-dione] |  | 204 to 205 °C |  |  |  |  |  |  | < 4.30 | < 4.30 | 6.35 | 5.92 | 5.89 | 5.72 | 5.42 |
| C[C@@H]1CN(c2ccc(N/C=C3\C(=O)NC(=O)c4ccc(-c5ccc(F)cc5)cc43)cc2F)C[C@H](C)N1 [Example 326, (4Z)-4-[({4-[(3R,5S)-3,5-Dimethylpiperazin-1-yl]-3-fluorophenyl}amino)methylene]-6-(4-fluorophenyl)isoquinoline-1,3(2H,4H)-dione] |  | 182 to 183 °C |  |  |  |  |  |  | < 4.30 | 4.50 | 5.04 | 6.01 | 5.74 | 6.00 | 5.43 |
| COC[C@@H]1CCCN1c1ccc(CN/C=C2\C(=O)NC(=O)c3ccc(I)cc32)cc1O [Example 523, (4Z)-4-[({3-Hydroxy-4-[(2S)-2-(methoxymethyl)pyrrolidin-1-yl]benzyl}amino)methylene]-6-iodoisoquinoline-1,3(2H,4H)-dione] | 4.51 | 120 to 121 °C | < 4.30 | 6.70 | 5.24 | 5.14 | 5.19 | 5.21 |  |  |  |  |  |  |  |
